Structures are written as SMILES.

In assay [1] the test system is Eimeria tenella protozoa (sporozoites). Nature of the assay: Direct killing effect against Eimeria tenella protozoa (sporozoites), microscopic count. Particulars: 10 ppm; death rate compared to PBS-treated negative control group. As to the method:
(§1) A certain amount of oocysts of the protozoa was put in a tube containing glass beads and pulverized, and then to remove the crushed oocyst cell wall and other debris, internal sporocysts were purified using the percoll density gradient, and washed with PBS solution. A reagent comprising sodium taurocholic acid (Sigma aldrich, USA) and trypsin (Gibco, USA), respectively, was treated to sporocysts of Eimeria tenella for excystation and they were incubated, and then they were washed with PBS solution once and protozoa were obtained.
After reacting 0.1% DMSO, m-coumaric acid (sigma, 14755-02-3), Caffeic acid (sigma, 331-39-5) and Ferulic acid (sigma, 1135-24-6) with the Eimeria tenella protozoa at a concentration of 10 ppm, respectively, only alive protozoa (sporozoites) were counted through microscopic observation. Then, the death rate (%) of the protozoa when each material was treated compared to the PBS-treated negative control group was measured, and the result was shown in Table 8 below.

The next assay has as its system Eimeria acervulina. Nature of the assay: Cell invasion inhibition of Eimeria acervulina protozoa in MDBK cells (PCR, ACE gene). It is filed as cell-based. As to conditions: 40° C., 24 hours, p-coumaric acid, gallic acid, salinomycin 10 ppm, diclazuril 1 ppm. On the procedure: as §1, with “each of Eimeria tenella and Eimeria acervulina” for “the protozoa”, “tenella, Eimeria acervulina and Eimeria maxima” for “tenella”
(§2) The protozoa of Eimeria tenella and Eimeria acervulina were obtained by the method of Example 3-1 above. Sporozoites of 2×10^5 per well were added to a well in which MDBK cells (purchased from ATCC) spread as a monolayer and each material (p-coumaric acid: sigma, CAS No. 501-98-4, and anticoccidial agents, gallic acid: sigma, CAS No. 149-91-7, salinomycin: CAS No. sigma, 53003-10-4, diclazuril: sigma, CAS No. 101831-37-2, p-coumaric acid, gallic acid and salinomycin were treated by 10 ppm, and diclazuril was treated by 1 ppm) was treated to the cells, and cultured at a temperature of 40° C. for 24 hours. The negative control group is MDBK cells infected by the protozoa, and the positive control group means a group in which gallic acid, salinomycin or diclazuril solution was incubated with the protozoa. […] After removing the cells and protozoa inside the cells through pipetting, DNA was extracted from the cells, and PCR was performed using E. tenella ITS-1 (Internal transcribed spacer-1) gene or E. acervulina ACE gene-specific primers. The sequences of the used primers were described in Table 5 below.
(§3) Ct values before/after washing for each material were compared and corrected with the ΔCt value of the negative control group to calculate the fold change (2^−ΔCt) at each time point compared to the control group, and the invasion inhibition rate (%) of the protozoa by material treatment was calculated, and the result was shown in Table 6 and Table 7.

Assay [2] concerns Eimeria tenella. Nature of the assay: Intracellular propagation inhibition of Eimeria tenella protozoa in MDBK cells (PCR, ITS-1 gene). It is filed as cell-based. As to the method:
as §1, with “each of Eimeria tenella and Eimeria acervulina” for “the protozoa”, “tenella, Eimeria acervulina and Eimeria maxima” for “tenella”
The protozoa of Eimeria tenella were obtained by the method of Example 3-1 above. […] Each material (p-coumaric acid, and anticoccidial agents, gallic acid, salinomycin: 10 ppm and diclazuril: 1 ppm) to the cells, and further cultured at a temperature of 40° C. for 24 hours.
The negative control group is MDBK cells infected by the protozoa, and the positive control group means a group in which salinomycin, gallic acid, or diclazuril solution was incubated with the protozoa. After removing the cells and protozoa inside the cells through pipetting, DNA was extracted from the cells using DNA extract kit (iNtRON Biotechnology), and PCR was performed using E. tenella ITS-1 (Internal transcribed spacer-1) gene-specific primers. The sequences of the used primers were described in Table 5 above. Ct values before/after washing for each material were compared and corrected with the ΔCt value of the negative control group to calculate the fold change (2^−ΔCt) at each time point compared to the control group, and the invasion inhibition rate (%) of the protozoa by material treatment was calculated, and the result was shown in Table 6 above.

The test system of assay [3] is Eimeria tenella. Nature of the assay: Cell invasion inhibition of Eimeria tenella protozoa in MDBK cells (PCR, ITS-1 gene). The format is cell-based. Particulars: for inhibition at 10 ppm: read-out: Invasion inhibition %. As to the method:
as §1, with “each of Eimeria tenella and Eimeria acervulina” for “the protozoa”, “tenella, Eimeria acervulina and Eimeria maxima” for “tenella”
as §2, §3
By the similar method to Example 3-2 above, 0.1% DMSO, p-coumaric acid (sigma, CAS No. 501-98-4), m-coumaric acid (sigma, 14755-02-3), and o-coumaric acid (sigma, 614-60-8) were treated at a concentration of 10 ppm, respectively, and the cell invasion inhibition rate against the Eimeria tenella protozoan was measured, and the result was shown in Table 9.

For assay [4], the system named is Eimeria tenella. Nature of the assay: In vivo anticoccidial efficacy in broilers challenge-inoculated with Eimeria tenella oocysts (anticoccidial index). On the set-up: species or system Ross broilers. As to conditions: in feed: salinomycin 60 ppm, VantiPEARL 125 ppm, p-coumaric acid 125 ppm; for Oocyst excretion amount: feces of 6-9th day of challenge inoculation, McMaster chamber; for ADG after challenge inoculation: before challenge to 7th day after challenge, 10,000 oocysts oral/broiler; for Oocyst index: index 0/5/10/20/40 from oocyst excretion % compared to infected negative control group; for Appendix lesion index: lesion score x 10; for ACI (anticoccidial index): out of 200 points, Equation 2; for Appendix lesion score: scale 0-4, 9th day after challenge inoculation; for Survival rate: up to the 8th day after challenge inoculation. On the procedure: An in vivo efficacy evaluation test was performed in an exclusive broiler animal experiment facility in U.S. One-day-old female Ross broilers were individually weighed and randomly divided into groups to use in an experiment.
For the feed, Korea Feed A1-choi product was used, and each material (salinomycin (Cheil Bio Cheilsalino-60 product), VantiPEAL (Kemin, Cozante, key substance: Gallic acid), p-coumaric acid (CAS No. 501-98-4; sigma)) was added to the feed, respectively, at a concentration described in Table 3 below to be self-mixed. Antibiotics and supplements were not used in general feed and mixed feed, and no anticoccidial agent other than each material was added. Broilers were fed ad libitum throughout the experiment period.
Coccidiosis induction was performed by oral inoculation (challenge inoculation) in an oral tube type of 10,000 oocysts with over 90% mature (sporulation) Eimeria tenella per one individual to 14-day-old broilers.
The feed formulation administered to the control group (negative control group or positive control group) and test group and whether coccidiosis was induced by Eimeria tenella were described in Table 3 below. 6 1-day-old broilers were put in a cage randomly arranged for each test group, and after 14 days of feeding the general feed, the formulated feed prepared above was divided into each control group or test group and ingested.
The anticoccidial efficacy by test group designed in Example 1-2 above was shown as an anticoccidial index (ACI), and the anticoccidial index was calculated by Equation 2 below. The ACI score is out of 200 points, and the higher the ACI score, the more excellent the anticoccidial ability, and when it is 120 points or more to less than 140 points, it is determined that it is effective as an anticoccidial material, and when it is 140 points or more to less than 160 points, it is determined that it is excellent as an anticoccidial material, and when it is 160 points or more, it is determined that the anticoccidial effect is very excellent. (Luis Miguel De Pablos et al., Anticoccidial activity of maslinic acid against infection with Eimeria tenella in chickens, Parasitol Res, 2010) Anticoccidial index (ACI)=(survival rate after challenge inoculation (%))+(daily weight gain compared to negative control group (RWG, %))−(lesion score×10)−(fecal oocyst excretion amount index) (Equation 2)
1) Survival rate: the number of dead individuals was recorded daily, and post mortem autopsy was performed to determine a cause of mortality, and the number of individuals who died due to causes other than coccidiosis was excluded. The survival rate (%) up to the 8th day after challenge inoculation was used for anticoccidial index calculation.
2) Daily weight gain: body weight was measured for each cage before challenge inoculation with a protozoan into an individual and at the 7th day after challenge inoculation, and the difference was divided by the number of days to calculate the daily weight gain (ADG, g/d). ‘Daily weight gain compared to the negative control group (RWG, %)’ which was calculated by dividing the daily weight gain (ADG, average daily gain: g/d) of each experimental group by the weight gain (ADG, g/d) of the non-infected negative control group and multiplying by 100 was used for anticoccidial index calculation.
3) Lesion scoring: On the 9th day after challenge inoculation, an autopsy was conducted for 4 broilers per cage, and the intestines were incised and opened. Scoring was performed for each coccidial lesion in the appendix region of the broilers. The lesion scoring method was performed by referring to Johnson J K & Reid W M (1970) document (Joyce Johnson, W. Malcolm Reid, Anticoccidial drugs: Lesion scoring techniques in battery and floor-pen experiments with chickens, Experimental parasitology, 1970). […]

The mark [5] stands for this setting: MDBK cells, material added after 24 h invasion and washing, further 24 hours at 40° C., p-coumaric acid, gallic acid, salinomycin 10 ppm, diclazuril 1 ppm.
Setting [6] is: Example 3-2, MDBK cells, 40° C., 24 hours, p-coumaric acid, gallic acid, salinomycin 10 ppm, diclazuril 1 ppm.
Where [7] appears, read: Eimeria tenella, Example 4-2, MDBK cells, 10 ppm.

`O=C(O)/C=C/c1ccc(O)c(O)c1` [Caffeic acid] yielded a Killed sporozoites % in assay [1] of 0%.

For `N#CC(c1ccc(Cl)cc1)c1c(Cl)cc(-n2ncc(=O)[nH]c2=O)cc1Cl` (stereo not shown) [Diclazuril, diclazuril], the inhibition – broadly, the change of the read-out against control, counted positive when it falls – at 1 ppm worked out at 42.7% with Eimeria acervulina (Eimeria acervulina); 52.9% with Eimeria tenella [2] (Eimeria tenella, MDBK cells, material added after 24 h invasion and washing, further 24 hours at 40° C., p-coumaric acid, gallic acid, salinomycin 10 ppm, diclazuril 1 ppm); 6.3% in the assay on Eimeria tenella [3] (Eimeria tenella, Example 3-2, MDBK cells, 40° C., 24 hours, p-coumaric acid, gallic acid, salinomycin 10 ppm, diclazuril 1 ppm).

`COc1cc(/C=C/C(=O)O)ccc1O` [Ferulic acid]: the Killed sporozoites % in assay [1] amounted to 0%.

Consider `O=C(O)c1cc(O)c(O)c(O)c1` [Gallic acid, gallic acid], for which the Invasion inhibition % in the assay on Eimeria acervulina stood at 60.6%; with Eimeria tenella [3] (setting [6]), 90.1%. The Propagation inhibition % in the assay with Eimeria tenella [2] (setting [5]) is on record as 0.0%.

For `CC[C@@H](C(=O)[C@@H](C)[C@@H](O)[C@H](C)[C@@H]1O[C@@H]([C@@H](CC)C(=O)O)CC[C@@H]1C)[C@H]1O[C@]2(C=C[C@@H](O)[C@]3(CC[C@@](C)([C@H]4CC[C@](O)(CC)[C@H](C)O4)O3)O2)[C@H](C)C[C@@H]1C` [Salinomycin, salinomycin], in the assay with Eimeria tenella [4], the Oocyst excretion amount is recorded as 6.3 × 10^7 Oocyst/chicken, the “RWG (daily weight gain compared to the non-infected negative control group)” value is given as 81.8%, the “ADG after challenge inoculation” value worked out at 45 g/day and the Oocyst index is 10. For the same compound, in the assay with Eimeria tenella [4], the Appendix lesion index is 22.7, the “ACI (anticoccidial index)” value is on record as 149 points, the Appendix lesion score is listed as 2.27 and the Survival rate is reported as 100%. Further, testing at 10 ppm with Eimeria acervulina (Eimeria acervulina) gave an inhibition of 59.4%. Besides, the inhibition at 10 ppm in the assay with Eimeria tenella [2] (Eimeria tenella, MDBK, 24 h, read-out: Propagation inhibition %) turned out to be 34.8%. For the same compound, the inhibition at 10 ppm in the assay with Eimeria tenella [3] (Eimeria tenella, MDBK, 24 h) came to 56.4%.

In the case of `O=C(O)/C=C/c1cccc(O)c1` [m-coumaric acid], in assay [1], the Killed sporozoites % is 10.7%. The inhibition at 10 ppm in the assay on Eimeria tenella [3] (setting [7]) was 29.8%.

Regarding `O=C(O)/C=C/c1ccccc1O` [o-coumaric acid], the inhibition at 10 ppm with Eimeria tenella [3] (setting [7]) was 39.6%.

On to `O=C(O)/C=C/c1ccc(O)cc1` [p-coumaric acid], for which, in the assay with Eimeria tenella [4], the Oocyst excretion amount was 5.7 × 10^7 Oocyst/chicken, the “RWG (daily weight gain compared to the non-infected negative control group)” value stood at 94.5%, the “ADG after challenge inoculation” value worked out at 52 g/day and the Oocyst index was 10. Further, in the assay with Eimeria tenella [4], the Appendix lesion index came to 25, the “ACI (anticoccidial index)” value is listed as 160 points, the Appendix lesion score was determined as 2.5 and the Survival rate is given as 100%. This compound also had an Invasion inhibition % in the assay on Eimeria acervulina of 82.6%. The compound further yielded a Propagation inhibition % in the assay on Eimeria tenella [2] (setting [5]) of 43.9%. Further, in the assay with Eimeria tenella [3] (setting [7]), the inhibition at 10 ppm was 7.98%. This compound also came in with an Invasion inhibition % in the assay with Eimeria tenella [3] (setting [6]) of 54.3%.
